Assay results reported in patent US20170349546A1, “Light-Activated Two-Component Protein Binding Matrix” (National University of Singapore, priority 2014, published 2017).
Where no end group is shown, it is not given here. The star is where a group is joined. Biotin = O=C1N[C@H]2[C@H](CS[C@H]2CCCCC(=O)*)N1

Experiment: Spiropyran modified beads pull-down of biotinylated peptide, residual HRP-streptavidin measured in solution
Assay type: binding
Details: beads incubated with 10 μM peptide, washed twice with PBS, 1 μM HRP-conjugated streptavidin; exposed to light at time=60 minutes
Protocol: FIG. 3 is a line graph representing binding of peptides to beads selectively modified with a spiropyran molecule. The selectively modified beads were incubated with 10 μM of peptide B7, LAGPQMHGK (SEQ ID NO: 62), for the indicate length of time, and then washed twice with phosphate buffered saline (PBS). The beads were when incubated with 1 μM horseradish (HRP)-conjugated streptavidin, and the residual HRP-streptavidin was measured in solution. FIG. 3 illustrates the % absorbance of the beads after the indicated period of time. The higher the absorbance, the higher the concentration of streptavidin in the bulk solution. […]
Wash 1 mL agarose beads with 2 column volumes DMSO (take from bottle in anhydrous fashion). In different container, mix 2.5 mg spiropyran and 80 mg EDC and 100 mg of NHS. Dissolve these compounds in DMSO; wait for 10 minutes at room temp. Add beads (which are now in DMSO) to this mixture. Make sure good mixing/suspension, i.e. enough DMSO to fully suspend the entire matrix. Agitate for 12 hours. Wash modified matrix with DMSO×20 c.v. to wash out free compounds. Remove DMSO with water was ×20 column volumes. Then store in water or 20% ethanol. See FIG. 7 for examples of bead conjugation techniques.

In the case of “LAGPQMHGK (LAGPQMHGK(Biotin)) [peptide B7, biotinylated peptide aptamer, biotin covalently linked via the amine on the C-terminal lysine residue]”, the “residual HRP-streptavidin in bulk solution (% absorbance) after exposure to light” value is reported as “released back into the bulk solution”.
